According to patent publication US9006235B2, “Inhibitors of human immunodeficiency virus replication” (priority 2012, dated 2015):
Read-outs that look alike come from different tables or passages of the source.

Tested on: recombinant NL-Rluc virus
Assay: Inhibition of HIV replication (NL-Rluc virus, luciferase readout in MT-2 cells)
Format: cell-based
Settings: Human immunodeficiency virus 1, MT2, 120 h

For `Cc1nc2cc(NC(=O)CCC3CCCCC3)nn2c(-c2cc(F)c3c(c2C)CCCO3)c1[C@H](OC(C)(C)C)C(=O)O` [Example 28, (2S)-2-tert-butoxy-2-(2-(3-cyclohexylpropanamido)-7-(8-fluoro-5-methylchroman-6-yl)-5-methylpyrazolo[1,5-a]pyrimidin-6-yl)acetic acid], the EC50 (read-out: Activity) was less than 100 nM.

In the case of `COc1cc(C(=O)Nc2cc3nc(C)c([C@H](OC(C)(C)C)C(=O)O)c(-c4cc(F)c5c(c4C)CCCO5)n3n2)cc(OC)c1OC` [Example 29, (2S)-2-tert-butoxy-2-(7-(8-fluoro-5-methylchroman-6-yl)-5-methyl-2-(3,4,5-trimethoxybenzamido)pyrazolo[1,5-a]pyrimidin-6-yl)acetic acid], the EC50 (read-out: Activity) is reported as 100 to 1000 nM.

`Cc1nc2cc(NC(=O)C(=O)c3c[nH]c4ccccc34)nn2c(-c2cc(F)c3c(c2C)CCCO3)c1[C@H](OC(C)(C)C)C(=O)O` [Example 31, (2S)-2-(2-(2-(1H-indol-3-yl)-2-oxoacetamido)-7-(8-fluoro-5-methylchroman-6-yl)-5-methylpyrazolo[1,5-a]pyrimidin-6-yl)-2-tert-butoxyacetic acid] gave an EC50 (read-out: Activity) of less than 100 nM.

`Cc1ccc(OC(=O)Nc2cc3nc(C)c([C@H](OC(C)(C)C)C(=O)O)c(-c4cc(F)c5c(c4C)CCCO5)n3n2)cc1` [Example 32, (2S)-2-(tert-butoxy)-2-(7-(8-fluoro-5-methylchroman-6-yl)-5-methyl-2-(((p-tolyloxy)carbonyl)amino)pyrazolo[1,5-a]pyrimidin-6-yl)acetic acid] gave an EC50 (MT-2 cells infected with NL-RLuc virus, 5 days of incubation, luciferase, serum condition not specified, read-out: Activity) greater than 1000 nM and an EC50 (MT-2 cells infected with NL-RLuc virus, 5 days of incubation, luciferase, serum condition not specified, read-out: EC50) of 6410 nM.

With `Cc1nc2cc(NC(=O)OCc3ccccc3)nn2c(-c2cc(F)c3c(c2C)CCCO3)c1[C@H](OC(C)(C)C)C(=O)O` [Example 33, (2S)-2-(2-(((benzyloxy)carbonyl)amino)-7-(8-fluoro-5-methylchroman-6-yl)-5-methylpyrazolo[1,5-a]pyrimidin-6-yl)-2-(tert-butoxy)acetic acid] the EC50 was 60 nM and the EC50 (read-out: Activity) was less than 100 nM.

For `CCCCOC(=O)Nc1cc2nc(C)c([C@H](OC(C)(C)C)C(=O)O)c(-c3cc(F)c4c(c3C)CCCO4)n2n1` [Example 34, (2S)-2-(tert-butoxy)-2-(2-((butoxycarbonyl)amino)-7-(8-fluoro-5-methylchroman-6-yl)-5-methylpyrazolo[1,5-a]pyrimidin-6-yl)acetic acid], the EC50 (read-out: Activity) was less than 100 nM.

With `Cc1nc2cc(NC(=O)OCC(C)(C)C)nn2c(-c2cc(F)c3c(c2C)CCCO3)c1[C@H](OC(C)(C)C)C(=O)O` [Example 35, (2S)-2-(tert-butoxy)-2-(7-(8-fluoro-5-methylchroman-6-yl)-5-methyl-2-(((neopentyloxy)carbonyl)amino)pyrazolo[1,5-a]pyrimidin-6-yl)acetic acid] the EC50 (read-out: Activity) was less than 100 nM.

For `Cc1nc2cc(NC(=O)OCC[Si](C)(C)C)nn2c(-c2cc(F)c3c(c2C)CCCO3)c1[C@H](OC(C)(C)C)C(=O)O` [Example 36, (2S)-2-(tert-butoxy)-2-(7-(8-fluoro-5-methylchroman-6-yl)-5-methyl-2-(((2-(trimethylsilyl)ethoxy)carbonyl)amino)pyrazolo[1,5-a]pyrimidin-6-yl)acetic acid], the EC50 (read-out: Activity) was less than 100 nM.

In the case of `Cc1ccc(NC(=O)Nc2cc3nc(C)c([C@H](OC(C)(C)C)C(=O)O)c(-c4cc(F)c5c(c4C)CCCO5)n3n2)cc1` [Example 37, (2S)-2-(tert-butoxy)-2-(7-(8-fluoro-5-methylchroman-6-yl)-5-methyl-2-(3-(p-tolyl)ureido)pyrazolo[1,5-a]pyrimidin-6-yl)acetic acid], the EC50 (read-out: Activity) is reported as less than 100 nM.

For `Cc1nc2cc(NCc3ccccc3)nn2c(-c2cc(F)c3c(c2C)CCCO3)c1[C@H](OC(C)(C)C)C(=O)O` [Example 38, (2S)-2-(2-(benzylamino)-7-(8-fluoro-5-methylchroman-6-yl)-5-methylpyrazolo[1,5-a]pyrimidin-6-yl)-2-(tert-butoxy)acetic acid], the EC50 was 300 nM and the EC50 (read-out: Activity) was 100 to 1000 nM.

`Cc1nc2cc(NCCc3ccccc3)nn2c(-c2cc(F)c3c(c2C)CCCO3)c1[C@H](OC(C)(C)C)C(=O)O` [Example 39, (2S)-2-(tert-butoxy)-2-(7-(8-fluoro-5-methylchroman-6-yl)-5-methyl-2-(phenethylamino)pyrazolo[1,5-a]pyrimidin-6-yl)acetic acid] showed an EC50 (read-out: Activity) of less than 100 nM.

Compound `Cc1ccc(CCNc2cc3nc(C)c([C@H](OC(C)(C)C)C(=O)O)c(-c4cc(F)c5c(c4C)CCCO5)n3n2)cc1` [Example 40, (2S)-2-(tert-butoxy)-2-(7-(8-fluoro-5-methylchroman-6-yl)-5-methyl-2-((4-methylphenethyl)amino)pyrazolo[1,5-a]pyrimidin-6-yl)acetic acid] has an EC50 (read-out: Activity) of less than 100 nM.

With `Cc1nc2cc(NCCCc3ccccc3)nn2c(-c2cc(F)c3c(c2C)CCCO3)c1[C@H](OC(C)(C)C)C(=O)O` [Example 41, (2S)-2-(tert-butoxy)-2-(7-(8-fluoro-5-methylchroman-6-yl)-5-methyl-2-((3-phenylpropyl)amino)pyrazolo[1,5-a]pyrimidin-6-yl)acetic acid] the EC50 was 50 nM and the EC50 (read-out: Activity) was less than 100 nM.

`Cc1nc2cc(NCCCC3CCCC3)nn2c(-c2cc(F)c3c(c2C)CCCO3)c1[C@H](OC(C)(C)C)C(=O)O` [Example 42, (2S)-2-(tert-butoxy)-2-(2-((3-cyclopentylpropyl)amino)-7-(8-fluoro-5-methylchroman-6-yl)-5-methylpyrazolo[1,5-a]pyrimidin-6-yl)acetic acid] gave an EC50 (read-out: Activity) of less than 100 nM.

Work on `Cc1nc2cc(NCCC(C)C)nn2c(-c2cc(F)c3c(c2C)CCCO3)c1[C@H](OC(C)(C)C)C(=O)O` [Example 43, (2S)-2-(tert-butoxy)-2-(7-(8-fluoro-5-methylchroman-6-yl)-2-(isopentylamino)-5-methylpyrazolo[1,5-a]pyrimidin-6-yl)acetic acid] yielded an EC50 (read-out: Activity) of less than 100 nM.

In the case of `Cc1nc2cc(N(CCC(C)C)CCC(C)C)nn2c(-c2cc(F)c3c(c2C)CCCO3)c1[C@H](OC(C)(C)C)C(=O)O` [Example 44, (2S)-2-(tert-butoxy)-2-(2-(diisopentylamino)-7-(8-fluoro-5-methylchroman-6-yl)-5-methylpyrazolo[1,5-a]pyrimidin-6-yl)acetic acid], the EC50 is reported as 1600 nM and the EC50 (read-out: Activity) is reported as greater than 1000 nM.

`Cc1nc2cc(NCCC(C)(C)C)nn2c(-c2cc(F)c3c(c2C)CCCO3)c1[C@H](OC(C)(C)C)C(=O)O` [Example 45, (2S)-2-(tert-butoxy)-2-(2-((3,3-dimethylbutyl)amino)-7-(8-fluoro-5-methylchroman-6-yl)-5-methylpyrazolo[1,5-a]pyrimidin-6-yl)acetic acid] gave an EC50 (read-out: Activity) of less than 100 nM.

In the case of `Cc1nc2cc(N(CCC(C)(C)C)CCC(C)(C)C)nn2c(-c2cc(F)c3c(c2C)CCCO3)c1[C@H](OC(C)(C)C)C(=O)O` [Example 46, (2S)-2-(2-(bis(3,3-dimethylbutyl)amino)-7-(8-fluoro-5-methylchroman-6-yl)-5-methylpyrazolo[1,5-a]pyrimidin-6-yl)-2-(tert-butoxy)acetic acid], the EC50 is reported as 2570 nM and the EC50 (read-out: Activity) is reported as greater than 1000 nM.

With `Cc1nc2cc(NCCC(C)CC(C)(C)C)nn2c(-c2cc(F)c3c(c2C)CCCO3)c1[C@H](OC(C)(C)C)C(=O)O` (stereo partly drawn) [Example 47, (2S)-2-(tert-butoxy)-2-(7-(8-fluoro-5-methylchroman-6-yl)-5-methyl-2-((3,5,5-trimethylhexyl)amino)pyrazolo[1,5-a]pyrimidin-6-yl)acetic acid] the EC50 (read-out: Activity) was less than 100 nM.

Work on `Cc1nc2cc(NCCC(F)(F)F)nn2c(-c2cc(F)c3c(c2C)CCCO3)c1[C@H](OC(C)(C)C)C(=O)O` [Example 48, (2S)-2-(tert-butoxy)-2-(7-(8-fluoro-5-methylchroman-6-yl)-5-methyl-2-((3,3,3-trifluoropropyl)amino)pyrazolo[1,5-a]pyrimidin-6-yl)acetic acid] yielded an EC50 of 340 nM and an EC50 (read-out: Activity) of 100 to 1000 nM.

Compound `Cc1nc2cc(NC3CCCC3)nn2c(-c2cc(F)c3c(c2C)CCCO3)c1[C@H](OC(C)(C)C)C(=O)O` [Example 49, (2S)-2-(tert-butoxy)-2-(2-(cyclopentylamino)-7-(8-fluoro-5-methylchroman-6-yl)-5-methylpyrazolo[1,5-a]pyrimidin-6-yl)acetic acid] has an EC50 (read-out: Activity) of 100 to 1000 nM.

Work on `Cc1nc2cc(N3CCCCC3)nn2c(-c2cc(F)c3c(c2C)CCCO3)c1[C@H](OC(C)(C)C)C(=O)O` [Example 50, (2S)-2-(tert-butoxy)-2-(7-(8-fluoro-5-methylchroman-6-yl)-5-methyl-2-(piperidin-1-yl)pyrazolo[1,5-a]pyrimidin-6-yl)acetic acid] yielded an EC50 of 60 nM and an EC50 (read-out: Activity) of less than 100 nM.

`Cc1nc2cc(N3CCCC3)nn2c(-c2cc(F)c3c(c2C)CCCO3)c1[C@H](OC(C)(C)C)C(=O)O` [Example 51, (2S)-2-(tert-butoxy)-2-(7-(8-fluoro-5-methylchroman-6-yl)-5-methyl-2-(pyrrolidin-1-yl)pyrazolo[1,5-a]pyrimidin-6-yl)acetic acid] gave an EC50 (read-out: Activity) of 100 to 1000 nM.

With `Cc1nc2cc(N(C)CCCC3CCCC3)nn2c(-c2cc(F)c3c(c2C)CCCO3)c1[C@H](OC(C)(C)C)C(=O)O` [Example 52, (2S)-2-(tert-butoxy)-2-(2-((3-cyclopentylpropyl)(methyl)amino)-7-(8-fluoro-5-methylchroman-6-yl)-5-methylpyrazolo[1,5-a]pyrimidin-6-yl)acetic acid] the EC50 (read-out: Activity) was less than 100 nM.
